# Where two headings read alike, the source gives them in different places.
# Assays:
# HepG2 cells = assay: HepG2 cytotoxicity assay; conditions: for Unified cytotox: HepG2 values of the three screens unified; for IC50: read-out: HepG2 cytotoxicity assay IC50, dose response confirmation; for Pb ODA (this manuscript) HepG2 cytoxicity: HepG2 cytotoxicity listed with the Pb ODA data set (this manuscript)
# Outline: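 HepG2 cells, 2,500 per well in MEM with 10% FBS and 1% NEAA, exposed to compounds for 48 h at 37°C, 5% CO2. Viability read by fluorescence; percent inhibition relative to 50 μM doxorubicin and DMSO controls.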
# [1] = test system: P. berghei ookinete development; conditions: for % inhibition, Replicate A / % inhibition, Replicate B: primary screen at 1 μM
# [2] = test system: 3D7-strain P. falciparum asexual parasites; assay: P. falciparum asexual growth inhibition assay (Pf GIA); assay type: cell-based, Plasmodium falciparum; conditions: dose response confirmation; read-out: Pf asexual growth inhibition assays IC50
# Outline: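 3D7 parasites at 0.25% parasitemia, 2% hematocrit were exposed to compounds in dose response for 72 h at 37°C under 5% CO2, 5% O2. Viability read as parasite LDH activity (nitro blue tetrazolium, A650) after freeze-thaw; inhibition scaled to chloroquine (50 μM) and DMSO controls, mean of three biological replicates.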
# [3] = read-out: Pb ODA IC50, this manuscript
# [4] = read-out: Pb Ookinete development assay IC50, dose response confirmation
# [5] = read-out: Pb ODA (this manuscript) IC50, P. berghei ookinete development assay, this manuscript
Compound,"HepG2 cytoxicity (Pb ODA, this manuscript) (HepG2 cells) [µM]",Unified cytotox (HepG2 cells) [µM],IC50 (HepG2 cells) [µM],"Is compound selective in assay? Pb ODA active? ([1]; 1: YES, 0: NO)","% inhibition, Replicate A [1] [%]","% inhibition, Replicate B [1] [%]","IC50 [1, 3] [µM]","IC50 [1, 4] [µM]",IC50 [2] [µM],IC50 ([1]; read-out: Pb ODA IC50) [µM],IC50 ([1]; read-out: Pb Ookinete development assay IC50) [µM],Pb ODA (this manuscript) HepG2 cytoxicity (HepG2 cells) [µM],Is compound selective in assay? Pb ODA active? [1],"IC50 [1, 5] [µM]"
CCC(CC)n1c(COC)cc2c3c(N)nc(N)nc3ccc21 [TCMDC-137313],0.0017,0.0017,0.0017,0 (0: NO),74.51,66.56,1.35,1.35,< 0.0002,–,–,–,–,–
COc1cc(Cn2ccc3c4c(N)nc(N)nc4ccc32)cc(OC)c1OC [TCMDC-137341],0.0017,0.0017,0.0017,–,61.35,58.11,–,–,< 0.0003,0.56,0.556,–,–,–
CNCCN(C)C(=O)Oc1c(Br)c(C)nc(C)c1-c1ccc(Oc2ccc(OC(F)(F)F)cc2)cc1.Cl [TCMDC-137377],–,–,8.32,–,132.58,124.21,–,1.48,0.071,–,–,8.32,0 (key: 1: YES; 0: NO),1.48
Cc1[nH]c(C)c(-c2ccc(Oc3ccc(Cl)cc3)cc2)c(=O)c1C [TCMDC-137378],8.61,8.61,8.61,1 (1: YES),87.44,100.49,0.64,0.636,< 0.0002,–,–,–,–,–
Cc1nc(C)c(-c2ccc(Oc3ccc(OC(F)(F)F)cc3)cc2)c(OC(=O)c2ccccc2)c1Cl [TCMDC-137380],–,–,37.6,–,56.36,103.63,–,0.86,0.173,–,–,37.58,1 (key: 1: YES; 0: NO),–
CC(=O)Oc1c(Cl)c(C)nc(C)c1-c1ccc(Oc2ccc(Cl)cc2)cc1 [TCMDC-137381],–,–,2.63,–,96.93,129.91,–,0.098,0.034,–,–,2.63,1 (key: 1: YES; 0: NO),0.1
Cc1nc(C)c(-c2ccc(Oc3ccc(OC(F)(F)F)cc3)cc2)c(OC(=O)c2ccc(CN(C)C)cc2)c1Cl [TCMDC-137382],–,–,24.6,–,93.07,108.44,–,0.462,0.127,–,–,24.55,1 (key: 1: YES; 0: NO),0.46
CC(=O)Oc1c(Br)c(C)nc(C)c1-c1ccc(Oc2ccc(OC(F)(F)F)cc2)cc1 [TCMDC-137383],–,–,9.89,–,98.12,79.70,–,0.589,0.15,–,–,9.89,1 (key: 1: YES; 0: NO),0.59
CC(=O)Oc1c(Cl)c(C)nc(C)c1-c1ccc(Oc2ccc(OC(F)(F)F)cc2)cc1 [TCMDC-137385],–,–,32,–,89.00,125.42,–,1.02,0.075,–,–,31.99,1 (key: 1: YES; 0: NO),1.02
Cc1[nH]c(C)c(-c2ccc(Oc3cccc(OC(F)(F)F)c3)cc2)c(=O)c1Cl [TCMDC-137389],–,–,100,–,25.35,53.00,–,1.13,0.47,–,–,100.00,1 (key: 1: YES; 0: NO),1.13
Cc1nc(C)c(-c2ccc(Oc3cc(Cl)cc(Cl)c3)cc2)c(O)c1Cl [TCMDC-137391],–,–,0.0017,–,91.21,90.22,–,0.311,0.0011,–,–,0.0017,0 (key: 1: YES; 0: NO),0.31
Cc1nc(C)c(-c2ccc(Oc3cc(Cl)cc(Cl)c3)cc2)c(O)c1Br [TCMDC-137392],19.95,19.95,19.9,1 (1: YES),78.18,115.81,0.45,0.447,0.498,–,–,–,–,–
Cc1nc(C)c(-c2ccc(Oc3ccc(Cl)c(Cl)c3)cc2)c(O)c1Cl [TCMDC-137396],–,–,17,–,89.72,133.12,–,0.124,0.096,–,–,16.98,1 (key: 1: YES; 0: NO),0.12
Cc1nc(C)c(-c2ccc(Oc3ccc(Cl)c(Cl)c3)cc2)c(O)c1Br [TCMDC-137397],19.50,19.50,19.5,1 (1: YES),88.28,102.35,–,0.09,0.088,–,–,–,–,–
Cc1[nH]c(C)c(-c2ccc(Oc3ccc(F)cc3)cc2)c(=O)c1Br [TCMDC-137402],3.80,3.80,3.8,1 (1: YES),94.48,95.56,0.0567,0.057,0.03,–,–,–,–,–
Cc1nc(C)c(-c2ccc(Sc3ccc(Cl)cc3)cc2)c(O)c1Br [TCMDC-137404],–,–,100,–,89.90,109.40,–,0.077,0.053,–,–,100.00,1 (key: 1: YES; 0: NO),0.08
Cc1[nH]c(C)c(-c2ccc(Oc3ccc(C(F)(F)F)cc3)cc2)c(=O)c1Br [TCMDC-137406],5.75,5.75,5.75,1 (1: YES),103.93,109.45,0.13,0.127,0.133,–,–,–,–,–
Cc1[nH]c(C)c(-c2ccc(C(=O)c3ccc(Cl)cc3)cc2)c(=O)c1Br [TCMDC-137407],–,–,44.7,–,83.43,91.19,–,0.078,0.056,–,–,44.67,1 (key: 1: YES; 0: NO),0.08
Cc1[nH]c(C)c(-c2ccc(Oc3ccccc3)cc2)c(=O)c1Br [TCMDC-137410],34.67,34.67,34.7,1 (1: YES),89.72,108.12,0.0338,0.034,0.014,–,–,–,–,–
